Experimental data as given in patent US8623909B2, “Prophylactic/therapeutic agents for lifestyle-related diseases” (priority 2008, dated 2014).
Marks after values point to notes of the source that are not given here.

Tests used:
PSA mRNA = PSA mRNA expression level in ORX rat prostates; type: in vivo; conditions: ORX rats; for PSA mRNA/GAPDH mRNA in prostates: 21 days, solvent 1.0, sham 114.4
Description: (§1) After housing the animals, the animals were anesthetized with ether, and underwent bilateral orchiectomy (orchiectomized rats: ORX) or a sham treatment. After awaking from the anesthesia, the animals were assigned to test groups of 3 to 5 animals each. […] After 21 days, the rats were sacrificed by exsanguination from the abdominal artery, the ventral prostates and anal levator muscle were excised and weighed followed by immersing in RNAlater (Nacalai Tesque) for extraction of RNA. In addition, soft tissue was removed from the right femur, and immersed in 75% ethanol followed by storage for subsequent measurement of the bone mineral density. Moreover, liver and visceral fat tissue were collected and immersed in RNAlater for RNA extraction.
(§2) Total RNA in various tissues of the ORX rats was isolated using the RNeasy Mini Kit or RNeasy Fibrous Tissue Mini Kit (Qiagen). 1 μg of this total RNA was subjected to reverse transcription using the QuantiaTect Reverse Transcription Kit (Qiagen). Next, cDNA was subjected to real-time PCR analysis using LightCycler (Roche Diagnostics) and each of the transcription products was quantified. Furthermore, PCR was carried out in 20 μl of a reaction mixture under the following conditions using SYBR Premix Ex Taq (Takara Biotechnology): 50 cycles consisting of denaturation for 5 seconds at 95° C., annealing for 20 seconds at 60° C. and elongation for 25 seconds at 72° C. In addition, glyceraldehyde-3-phosphate dehydrogenase (GAPDH) mRNA was simultaneously amplified as an internal standard, and the real-time PCR value of each transcription product were calculated as a relative value based on GAPDH.
The PSA mRNA expression levels in the prostates of the ORX rats obtained in the aforementioned section (4)-1) were measured according to the method of section (4)-3).

PSA promoter = assay: PSA promoter-luciferase activity in LNCaP cells (dual-luciferase reporter); type: cell-based, human
Procedure: Plasmid pCMV-hAR was constructed based on a method previously reported by the inventors of the present invention (J. Biol. Chem., 282, 7329-7338). In addition, reporter plasmids consisting of PGL3-PSA (human) and PGL3-UCP-1 (mouse) were also constructed based on a method previously reported by the inventors of the present invention (Diabetes, 54, 1000-1008). Furthermore, pRL-SV40 was acquired commercially.
NIH-3T30-L1 mouse preadipocytes were cultured in Dulbecco's modified Eagle's medium (Sera Laboratories) containing 10% fetal calf serum. In addition, cells of human prostate cancer cell line LNCap were cultured in RPMI 1640 medium (Sigma) containing 10% fetal calf serum. Furthermore, these two types of cell lines were obtained from the American Type Culture Collection (Manassas).
The NIH-3T3-L1 cells of 2) above were co-transfected with pCMV-hAR, pRL-SV40 and PGL3-UCP-1 (mouse) in a 24-well plate using an Effectene Transfection Kit (Qiagen) and a Fugene HD Kit (Roche Diagnostics). In addition, the LNCaP cells of 2) above were similarly co-transfected with pCMV-hAR, pRL-SV40 and PGL3-PSA (human).
4) Measurement of Effect on PSA Promoter-Luciferase Activity in LNCaP Cells
The LNCaP cells co-transfected in 3) above were cultured for 24 hours in DMEM or RPMI 1640 containing 10% fetal calf serum treated with dextran-charcoal and a test compound (dissolved in a small amount of DMSO) 24 hours after transfection. Subsequently, the activities of firefly luciferase and Renilla luciferase were assayed in a 24-well plate using the Dual-Luciferase Reporter Assay System (Promega) in accordance with the protocol of Minilumat LB9507 (Berthold Technologies). Furthermore, the value of firefly luciferase activity were normalized based on the internal Renilla control, and were presented as relative luciferase activity.

ORX rats [1] = assay: Plasma FSH concentration in ORX rats; type: in vivo, rat; conditions: for Effect on FSH levels (in words): dose of 1 or 10 mg/kg; for Plasma FSH concentration: solvent 44.1, sham 12.1
Description: as §1
(§3) Characteristics of the effect of compounds on the pituitary gland were investigated by measuring plasma concentrations of LH and FSH in ORX rats treated in the aforementioned section (4)-1).

IRS-2 mRNA = IRS-2 mRNA level in liver of ORX rats; type: in vivo, rat; conditions: for IRS-2 mRNA/GAPDH mRNA level in rat liver: solvent 4.8, sham 1.0
Description: as §1, §2
(§4) In addition, mRNA levels of insulin receptor substrate 2 (IRS-2) in the liver were also measured.

FAS mRNA = FAS mRNA level in liver and visceral fat of ORX rats; type: in vivo, rat
Description: as §1, §2, §4

SREBP-1c mRNA = SREBP-1c mRNA level in liver and visceral fat of ORX rats; type: in vivo, rat
Description: as §1, §2, §4

ORX rats [2] = assay: Plasma LH concentration in ORX rats; type: in vivo, rat; conditions: for Effect on LH levels (in words): 1 and 10 mg/Kg; for Plasma LH concentration: solvent 10.3, sham 1.7
Description: as §1, §3

ORX rats [3] = assay: Plasma cholesterol level in ORX rats; type: in vivo, rat; conditions: for Effect on cholesterol levels (in words): 1 and 10 mg/Kg; for Plasma cholesterol concentration: solvent 78.0, sham 64.8
Description: as §1
Plasma triglyceride and cholesterol levels were measured to characterize the metabolic profiles of ORX rats treated in the aforementioned section (4)-1).

[4] = liver, 1 mg/Kg, solvent 0.9, sham 1.0
[5] = liver, 10 mg/Kg, solvent 0.9, sham 1.0
[6] = visceral fat, 1 mg/Kg, solvent 0.5, sham 1.0
[7] = visceral fat, 10 mg/Kg, solvent 0.5, sham 1.0
[8] = liver, 1 mg/Kg, solvent 0.7, sham 1.0
[9] = liver, 10 mg/Kg, solvent 0.7, sham 1.0
[10] = visceral fat, 1 mg/Kg, solvent 1.0, sham 1.0
[11] = visceral fat, 10 mg/Kg, solvent 1.0, sham 1.0

Compound | PSA mRNA/GAPDH mRNA in prostates (PSA mRNA; 1 mg/Kg s.c. once a day) | PSA mRNA/GAPDH mRNA in prostates (PSA mRNA; 10 mg/Kg s.c. once a day) | Effect on FSH levels (in words) (ORX rats [1]) | Effect on liver IRS-2 mRNA level (in words) (IRS-2 mRNA) | IRS-2 mRNA/GAPDH mRNA level in rat liver (IRS-2 mRNA; 1 mg/Kg) | IRS-2 mRNA/GAPDH mRNA level in rat liver (IRS-2 mRNA; 10 mg/Kg) | FAS mRNA/GAPDH mRNA level (FAS mRNA; [4]) | FAS mRNA/GAPDH mRNA level (FAS mRNA; [5]) | FAS mRNA/GAPDH mRNA level (FAS mRNA; [6]) | FAS mRNA/GAPDH mRNA level (FAS mRNA; [7]) | SREBP-1c mRNA/GAPDH mRNA level (SREBP-1c mRNA; [8]) | SREBP-1c mRNA/GAPDH mRNA level (SREBP-1c mRNA; [9]) | SREBP-1c mRNA/GAPDH mRNA level (SREBP-1c mRNA; [10]) | SREBP-1c mRNA/GAPDH mRNA level (SREBP-1c mRNA; [11]) | Effect on LH levels (in words) (ORX rats [2]) | Effect on cholesterol levels (in words) (ORX rats [3]) | other results
C[C@]12CCC(=O)C[C@@H]1CC[C@@H]1[C@@H]2CC[C@]2(C)[C@@H](O)CC[C@@H]12 [Dihydrotestosterone, 5α-dihydrotestosterone, reference compound] | 211.4**^,## | 209.8**^,## | inhibited to levels observed in the untreated control group | decreased | 5.1 | 0.8 | 8.0 | 7.1 | 2.3 | 3.5*^,# | 3.4 | 3.2 | 1.8 | 2.2 | inhibited LH levels | lowered cholesterol levels | Increase of prostate PSA mRNA level in comparison with the sham treatment group (PSA mRNA; 1 and 10 mg/Kg): about 1.8 fold; PSA promoter activity stimulation (PSA promoter; 10^−7 M or 10^−8 M): roughly 9 fold
CC(=O)[C@H]1CCC2C3CCc4c(C)cccc4C3CC[C@@]21C (some centres unmarked) [Compound of formula (Ia)] | 1.0** | 1.2** | did not have any effect on FSH | increased | 10.6** | 8.8* | 0.7 | 0.5 | 0.3* | 0.6 | 0.8 | 0.6 | 0.8 | 0.5 | did not inhibit LH levels, but rather increased LH levels dose-dependently | did not have an effect on cholesterol levels | Change in prostate PSA mRNA levels (in words) (PSA mRNA; 1 and 10 mg/Kg): no changes observed; Value of luciferase transcription activity (PSA promoter, relative luciferase activity) (PSA promoter; 10^−5M, 24 hours, control (DMSO) 1.0): 1.3; Plasma FSH concentration (ORX rats [1]; 1 mg/Kg): 48.7* ng/mL; Plasma FSH concentration (ORX rats [1]; 10 mg/Kg): 46.3* ng/mL; FAS mRNA levels (in words) (FAS mRNA; liver and visceral fat): also lower; SREBP-1c mRNA levels (in words) (SREBP-1c mRNA; liver and visceral fat): lower in both tissues; Plasma LH concentration (ORX rats [2]; 1 mg/Kg): 12.6** ng/mL; Plasma LH concentration (ORX rats [2]; 10 mg/Kg): 19.9*^,## ng/mL; Plasma cholesterol concentration (ORX rats [3]; 1 mg/Kg): 66.0 mg/dL; Plasma cholesterol concentration (ORX rats [3]; 10 mg/Kg): 71.5 mg/dL
